Source: PubChem BioAssay AID330 (DTP/NCI, 2004)
Values joined by “and” are separate entries in the source; they are usually repeats but may differ in a detail not shown here. Equal values may be shown once. Inconclusive results and toxic doses are left out. How the source made its calls: active means survival T/C of 150% or more; inactive means T/C below 125% in these data.

Tested on: P388 leukemia ip, CD2F1 mice, survival T/C
Assay: NCI In Vivo Anticancer Drug Screen. Data for tumor model P388 Leukemia (intraperitoneal) in CD2F1 (CDF1) mice
Settings: endpoint: median survival time, higher = longer survival
How it was run: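 Mice carrying the transplanted tumor received test compound or vehicle. Survival was recorded in each group, and the value is the treated-group measurement divided by that of the vehicle-treated control group.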

[1] = dose: 50.0 mg/kg/injection, schedule: Q01DX009 (ip), vehicle: saline with Tween-80
[2] = dose: 100.0 mg/kg/injection, schedule: Q01DX009 (ip), vehicle: saline with Tween-80
[3] = dose: 50.0 mg/kg/injection, schedule: Q01DX005 (ip), vehicle: saline with Tween-80
[4] = dose: 100.0 mg/kg/injection, schedule: Q01DX005 (ip), vehicle: saline with Tween-80
[5] = dose: 200.0 mg/kg/injection, schedule: Q01DX005 (ip), vehicle: saline with Tween-80
[6] = dose: 50.0 mg/kg/injection, schedule: Q01DX005 (ip), vehicle: Klucel (hydroxypropylcellulose) (HPC)
[7] = dose: 100.0 mg/kg/injection, schedule: Q01DX005 (ip), vehicle: Klucel (hydroxypropylcellulose) (HPC)
[8] = dose: 200.0 mg/kg/injection, schedule: Q01DX005 (ip), vehicle: Klucel (hydroxypropylcellulose) (HPC)

Measured: T/C

[O]=[Ge]([c]1ccccc1)[c]1ccccc1
inactive: dose: 50.0 mg/kg/injection, schedule: Q01DX009 (ip), vehicle: saline 95 % of control | dose: 100.0 mg/kg/injection, schedule: Q01DX009 (ip), vehicle: saline 96 % of control | dose: 200.0 mg/kg/injection, schedule: Q01DX009 (ip), vehicle: saline 92 % of control

O=C(Nc1ccccc1)OCc1ccc(OCc2ccccc2)cc1
inactive: dose: 25.0 mg/kg/injection, schedule: Q01DX009 (ip), vehicle: saline with Tween-80 107 % of control and 94 % of control | [1] 110 % of control and 95 % of control | [2] 104 % of control and 89 % of control | dose: 200.0 mg/kg/injection, schedule: Q01DX009 (ip), vehicle: saline with Tween-80 95 % of control

COC(=O)c1c(C(=O)Nc2ccc(Cl)cc2)c(C)n(NC(N)=O)c1C
inactive: [3] 95 % of control | [4] 95 % of control | [5] 101 % of control

Cc1ncc(COP(=O)(O)O)c(C2NCCS2)c1O (stereo not given)
inactive: dose: 60.0 mg/kg/injection, schedule: Q01DX005 (ip), vehicle: saline 102 % of control | dose: 120.0 mg/kg/injection, schedule: Q01DX005 (ip), vehicle: saline 105 % of control | dose: 240.0 mg/kg/injection, schedule: Q01DX005 (ip), vehicle: saline 102 % of control

O=Cc1cc(/C(N=Nc2ccccc2C(=O)O)=N/Nc2ccccc2C(=O)O)nc2[nH]c(=O)ccc12
inactive: [6] 95 % of control | [7] 100 % of control

C=C=CC(C)(O)c1ccc(-c2ccccc2)cc1 (stereo not given)
inactive: [6] 97 % of control | [7] 100 % of control | [8] 104 % of control

O=C(CC(=O)c1ccc(Cl)s1)C(=O)Nc1cccc(C(F)(F)F)c1
inactive: dose: 60.0 mg/kg/injection, schedule: Q01DX005 (ip), vehicle: saline with Tween-80 105 % of control | dose: 120.0 mg/kg/injection, schedule: Q01DX005 (ip), vehicle: saline with Tween-80 102 % of control | dose: 240.0 mg/kg/injection, schedule: Q01DX005 (ip), vehicle: saline with Tween-80 106 % of control

NC(=O)CCBr
inactive: [1] 101 % of control | [2] 97 % of control

C=C1C(=O)O[C@H]2C[C@H]3O[C@H]3[C@@H]12
inactive: dose: 1.56 mg/kg/injection, schedule: Q01DX009 (ip), vehicle: water 100 % of control | dose: 3.13 mg/kg/injection, schedule: Q01DX009 (ip), vehicle: water 99 % of control | dose: 6.25 mg/kg/injection, schedule: Q01DX009 (ip), vehicle: water 98 % of control | dose: 12.5 mg/kg/injection, schedule: Q01DX009 (ip), vehicle: water 101 % of control | dose: 25.0 mg/kg/injection, schedule: Q01DX009 (ip), vehicle: water 107 % of control

NC1CN(C(COCc2ccccc2)c2ccc(OCc3ccccc3)cc2)C1=O (stereo not given)
inactive: [3] 100 % of control | [4] 103 % of control | [5] 97 % of control

CCOC(=O)C(CC(C)/C=N\Nc1ccccc1)(NC(C)=O)C(=O)OCC (stereo not given)
inactive: dose: 100.0 mg/kg/injection, schedule: Q01DX001 (ip), vehicle: Klucel (hydroxypropylcellulose) (HPC) 95 % of control | dose: 200.0 mg/kg/injection, schedule: Q01DX001 (ip), vehicle: Klucel (hydroxypropylcellulose) (HPC) 93 % of control | dose: 400.0 mg/kg/injection, schedule: Q01DX001 (ip), vehicle: Klucel (hydroxypropylcellulose) (HPC) 99 % of control

Fc1ccc(N2CSC(=S)N(c3ccc(F)cc3F)C2)c(F)c1
inactive: [3] 107 % of control | [4] 104 % of control | [5] 95 % of control

CCN(CC)C1C(Br)c2ccccc2C(OC)N1C#N (stereo not given)
inactive: dose: 50.0 mg/kg/injection, schedule: Q01DX005 (ip), vehicle: distilled water + Tween-80 + alcohol 103 % of control | dose: 100.0 mg/kg/injection, schedule: Q01DX005 (ip), vehicle: distilled water + Tween-80 + alcohol 107 % of control

O=C(Nc1cccnc1)c1ccc(CSc2ccc(Cl)cc2)o1
inactive: [6] 104 % of control | [7] 102 % of control | [8] 111 % of control

CC1(C)CC(=O)C2=C(C1)NC1=C(C(=O)CC(C)(C)C1)C2c1cccs1
inactive: [3] 98 % of control | [4] 98 % of control | [5] 93 % of control
